Columns and labels:
[1] = target: T1, QPCTL (Homo sapiens (Human), UniProt Q9NXS2); test: Inhibition of Cellular QPCTL Activity - Imaging Assay, CC2C6 anti-CD47 staining of DLD-1 cells; assay type: cell-based; conditions: 72 hours, CC2C6 anti-CD47 high-content imaging
Method: Inhibition of Cellular QPCTL Activity—Imaging Assay
The cells were incubated for 72 hours at 37° C. and 5% CO2. […] After primary antibody staining, the cells were fixed with 4% paraformaldehyde in the incubation buffer for 15 minutes at room temperature. […] Cells were analyzed on a ImageXpress Pico Automated Cell Imaging System (Molecular Devices) using 10× objective (3×3 fields).
Target sequence in this assay (Q9NXS2 whole entry): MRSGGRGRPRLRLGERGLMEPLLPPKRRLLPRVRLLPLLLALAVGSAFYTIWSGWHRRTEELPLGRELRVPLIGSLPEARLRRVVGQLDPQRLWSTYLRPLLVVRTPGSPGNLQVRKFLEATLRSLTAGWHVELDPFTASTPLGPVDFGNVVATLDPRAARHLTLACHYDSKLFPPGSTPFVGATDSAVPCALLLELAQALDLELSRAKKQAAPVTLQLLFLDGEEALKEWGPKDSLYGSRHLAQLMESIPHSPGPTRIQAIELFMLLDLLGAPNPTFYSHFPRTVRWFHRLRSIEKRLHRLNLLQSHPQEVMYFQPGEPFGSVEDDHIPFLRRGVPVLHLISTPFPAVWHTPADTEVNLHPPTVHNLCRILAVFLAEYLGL

[2] = target: QPCT (rhQPCT) (Homo sapiens (Human), UniProt Q16769); test: QPCT Enzymatic Activity Assay (coupled-enzyme fluorescent assay, H-Gln-AMC substrate); assay type: biochemical; conditions: rhQPCT 10-12 nM, 10 μM H-Gln-AMC; read-out: QPCT Inhibition IC50
Method in brief: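 Coupled assay: recombinant human QPCT converts H-Gln-AMC (10 μM final) to pyroglutamyl-AMC, 60 min at 37 °C, stopped by boiling; PGPEP-1 then releases AMC.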

[3] = target: T1, QPCTL; test: QPCTL Enzymatic Activity Assay (coupled-enzyme fluorescent assay, H-Gln-AMC substrate); assay type: biochemical; conditions: recombinant truncated human QPCTL 10-12 nM, 10 μM H-Gln-AMC; read-out: QPCTL Inhibition IC50
Target sequence in this assay (Q9NXS2 53-382): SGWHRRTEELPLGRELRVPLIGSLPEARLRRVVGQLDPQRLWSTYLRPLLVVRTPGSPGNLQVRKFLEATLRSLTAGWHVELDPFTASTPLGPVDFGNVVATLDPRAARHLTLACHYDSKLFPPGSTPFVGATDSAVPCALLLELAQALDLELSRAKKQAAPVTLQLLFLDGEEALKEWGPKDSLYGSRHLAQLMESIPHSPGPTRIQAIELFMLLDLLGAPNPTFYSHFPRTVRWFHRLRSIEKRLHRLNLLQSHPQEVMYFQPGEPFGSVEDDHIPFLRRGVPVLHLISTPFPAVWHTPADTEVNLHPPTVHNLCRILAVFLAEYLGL

[4] = target: T1, QPCTL; test: Inhibition of Cellular QPCTL Activity - FACS flow cytometry, CC2C6 anti-CD47 staining of Ramos cells; assay type: cell-based; conditions: Ramos human Burkitts Lymphoma cells, 72-96 hours, % CC2C6-positive cells
Method: Inhibition of Cellular QPCTL Activity—Fluorescence-Activated Cell Sorting (FACS) Flow Cytometry
The cells were incubated for 72-96 hours at 37° C. and 5% CO2. At the end of incubation period, cells were transferred to tubes and spun down at 1200 rpm for 5 minutes. […] After antibody staining, the cells were washed with FACS buffer then stained with SYTOX™ Blue dead cell stain at a dilution of 1:1000. Cells were analyzed on a BD FACS Melody and a positive staining gate on live cells was set using the 0.1% DMSO controls. […] Flow cytometry data were analyzed by FlowJo software and concentration-response-curves and IC50 values were generated using Collaborative Drug Discovery software.
Target sequence in this assay (Q9NXS2 whole entry): as the sequence (Q9NXS2 whole entry) above

QPCT (rhQPCT), sequence (Q16769 29-361): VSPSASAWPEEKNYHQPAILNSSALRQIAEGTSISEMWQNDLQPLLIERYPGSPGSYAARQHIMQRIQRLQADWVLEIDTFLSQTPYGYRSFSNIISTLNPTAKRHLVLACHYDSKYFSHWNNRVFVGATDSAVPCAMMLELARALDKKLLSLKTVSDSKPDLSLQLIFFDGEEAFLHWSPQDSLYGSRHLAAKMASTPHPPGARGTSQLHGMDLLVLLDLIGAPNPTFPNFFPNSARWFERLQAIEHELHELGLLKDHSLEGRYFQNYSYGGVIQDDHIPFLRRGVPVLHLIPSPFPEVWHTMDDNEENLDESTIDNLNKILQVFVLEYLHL

Structure (SMILES) | IC50 [1] | IC50 [2] | IC50 [3] | IC50 [4]
COc1ccc(-c2ccc(F)nc2)c(N2CCC(c3nncn3C)CC2)c1C#N [Example 24, 3-(6-fluoropyridin-3-yl)-6-methoxy-2-[4-(4-methyl-4H-1,2,4-triazol-3-yl)piperidin-1-yl]benzonitrile] | < 0.1 µM | < 0.1 µM | < 0.1 µM | < 0.1 µM
Cn1cnnc1C1CCN(c2c(C#N)cccc2-c2ccnnc2)CC1 [Example 11, 2-[4-(4-methyl-4H-1,2,4-triazol-3-yl)piperidin-1-yl]-3-(pyridazin-4-yl)benzonitrile] | – | < 0.1 µM | < 0.1 µM | < 0.1 µM
Cn1cnnc1C1CCN(c2c(C#N)cccc2-c2cncc3c2cnn3C)CC1 [Example 4, 3-{1-methyl-1H-pyrazolo[3,4-c]pyridin-4-yl}-2-[4-(4-methyl-4H-1,2,4-triazol-3-yl)piperidin-1-yl]benzonitrile] | – | 0.1 to 1 µM | 0.1 to 1 µM | 1 to 10 µM
COc1ccncc1-c1cccc(C#N)c1N1CCC(c2nncn2C)CC1 [Example 3, 3-(4-methoxypyridin-3-yl)-2-[4-(4-methyl-4H-1,2,4-triazol-3-yl)piperidin-1-yl]benzonitrile] | – | < 0.1 µM | < 0.1 µM | 0.1 to 1 µM
Cn1cnnc1C1CCN(c2c(C#N)cccc2-c2ccc3ocnc3c2)CC1 [Example 15, 3-(1,3-benzoxazol-5-yl)-2-[4-(4-methyl-4H-1,2,4-triazol-3-yl)piperidin-1-yl]benzonitrile] | – | < 0.1 µM | 0.1 to 1 µM | 1 to 10 µM
Cn1cc2c(-c3cccc(C#N)c3N3CCC(c4nncn4C)CC3)cncc2n1 [Example 16, 3-{2-methyl-2H-pyrazolo[3,4-c]pyridin-4-yl}-2-[4-(4-methyl-4H-1,2,4-triazol-3-yl)piperidin-1-yl]benzonitrile] | – | < 0.1 µM | < 0.1 µM | 0.1 to 1 µM
Cn1cnnc1C1CCN(c2c(C#N)cccc2-c2cnccc2Cl)CC1 [Example 10, 3-(4-chloropyridin-3-yl)-2-[4-(4-methyl-4H-1,2,4-triazol-3-yl)piperidin-1-yl]benzonitrile] | – | < 0.1 µM | < 0.1 µM | 0.1 to 1 µM
Cn1cnnc1C1CCN(c2c(C#N)cccc2-c2ccc(OCCO)nc2)CC1 [Example 6, 3-[6-(2-hydroxyethoxy)pyridin-3-yl]-2-[4-(4-methyl-4H-1,2,4-triazol-3-yl)piperidin-1-yl]benzonitrile] | – | < 0.1 µM | < 0.1 µM | 1 to 10 µM
Cn1cnnc1C1CCN(c2c(C#N)cccc2-c2cnccc2OCCO)CC1 [Example 9, 3-[4-(2-hydroxyethoxy)pyridin-3-yl]-2-[4-(4-methyl-4H-1,2,4-triazol-3-yl)piperidin-1-yl]benzonitrile] | – | < 0.1 µM | < 0.1 µM | 1 to 10 µM
Cn1cnnc1C1CCN(c2c(C#N)cccc2-c2cccnc2)CC1 [Example 2, 2-[4-(4-methyl-4H-1,2,4-triazol-3-yl)piperidin-1-yl]-3-(pyridin-3-yl)benzonitrile] | – | < 0.1 µM | < 0.1 µM | 0.1 to 1 µM

Second part, the compound after the results:

IC50 [1] | IC50 [2] | IC50 [3] | IC50 [4] | Structure (SMILES)
1 to 10 µM | < 0.1 µM | < 0.1 µM | 0.1 to 1 µM | COc1ccncc1-c1ccc(OC)c(C#N)c1N1CCC(c2nncn2C)CC1 [Example 25, 6-methoxy-3-(4-methoxypyridin-3-yl)-2-[4-(4-methyl-4H-1,2,4-triazol-3-yl)piperidin-1-yl]benzonitrile]
0.1 to 1 µM | < 0.1 µM | < 0.1 µM | 1 to 10 µM | Cn1cnnc1C1CCN(c2c(C#N)cccc2-c2cnc(=O)n(C)c2)CC1 [Example 34, 3-(1-methyl-2-oxo-1,2-dihydropyrimidin-5-yl)-2-[4-(4-methyl-4H-1,2,4-triazol-3-yl)piperidin-1-yl]benzonitrile]
– | < 0.1 µM | < 0.1 µM | < 0.1 µM | CN(C)CCOc1ccc(-c2ccc(F)nc2)c(N2CCC(c3nncn3C)CC2)c1C#N [Example 37, 6-[2-(dimethylamino)ethoxy]-3-(6-fluoropyridin-3-yl)-2-[4-(4-methyl-4H-1,2,4-triazol-3-yl)piperidin-1-yl]benzonitrile]
< 0.1 µM | < 0.1 µM | < 0.1 µM | < 0.1 µM | Cn1cnnc1C1CCN(c2c(C#N)ccc(F)c2-c2ccc(F)nc2)CC1 [Example 38, 4-fluoro-3-(6-fluoropyridin-3-yl)-2-[4-(4-methyl-4H-1,2,4-triazol-3-yl)piperidin-1-yl]benzonitrile]
– | < 0.1 µM | < 0.1 µM | < 0.1 µM | Cn1cc(-c2ccc(-c3ccnnc3)c(N3CCC(c4nncn4C)CC3)c2C#N)cn1 [Example 36, 6-(1-methyl-1H-pyrazol-4-yl)-2-[4-(4-methyl-4H-1,2,4-triazol-3-yl)piperidin-1-yl]-3-(pyridazin-4-yl)benzonitrile]
– | < 0.1 µM | < 0.1 µM | < 0.1 µM | Cn1cnnc1C1CCN(c2c(-c3ccc(F)nc3)ccc(Cl)c2C#N)CC1 [Example 30, 6-chloro-3-(6-fluoropyridin-3-yl)-2-[4-(4-methyl-4H-1,2,4-triazol-3-yl)piperidin-1-yl]benzonitrile]
– | < 0.1 µM | < 0.1 µM | 0.1 to 1 µM | COc1ccncc1-c1ccc(Cl)c(C#N)c1N1CCC(c2nncn2C)CC1 [Example 27, 6-chloro-3-(4-methoxypyridin-3-yl)-2-[4-(4-methyl-4H-1,2,4-triazol-3-yl)piperidin-1-yl]benzonitrile]
– | < 0.1 µM | < 0.1 µM | 0.1 to 1 µM | Cn1cnnc1C1CCN(c2c(C#N)ccc(F)c2-c2ccnnc2)CC1 [Example 39, 4-fluoro-2-[4-(4-methyl-4H-1,2,4-triazol-3-yl)piperidin-1-yl]-3-(pyridazin-4-yl)benzonitrile]
< 0.1 µM | < 0.1 µM | < 0.1 µM | < 0.1 µM | Cn1cc(-c2ccc(-c3ccc(F)nc3)c(N3CCC(c4nncn4C)CC3)c2C#N)cn1 [Example 35, 3-(6-fluoropyridin-3-yl)-6-(1-methyl-1H-pyrazol-4-yl)-2-[4-(4-methyl-4H-1,2,4-triazol-3-yl)piperidin-1-yl]benzonitrile]

— patent US20240101544A1, “INHIBITORS OF QPCTL AND QPCT” (priority 2022, published 2024)
